The record followed here is patent US4055468A, “Processes for producing physiologically active peptide and its N-acyl derivatives” (priority 1974, dated 1977).

Where two headings read alike, the source gives them in different places.

One series concerns the target Cathepsin D (Homo sapiens, UniProt P07339). Description: anti-cathepsin D activity. Type of series: biochemical. How it is done: (§1) As an example of one of the physiological activities of the peptide and N-acyl derivatives thereof obtained according to the present invention, anti-pepsin and anti-cathepsin D activities and also acute toxicity are given in Table 8. The activities (ID50) were assayed according to the method described above and The Journal of Antibiotics 25 689 (1972). The anti-protease activities of the peptide and N-acyl derivatives thereof are extremely high.

The next series in a line: Solubility in solvents. Type of series: physicochemical.
The subject of series [1] is mice. Description: Tolerated oral administration. Type of series: in vivo. How it is done:
(§2) The peptide Val--X--Ala--X and its N-acyl derivatives according to this invention have low toxicity; mice, dogs, rats and rabbits tolerated oral administration of more than 2.000 mg/kg. of the compounds, and LD50 of the compounds for animals when administered by intraperitoneal injections are shown in Table 8. Daily 250 mg/kg oral administrations of each of the compounds to rats for 90 days caused no toxicity, and the rats grew at the normal growth rate.

The next series relates to rats. Description: Tolerated oral administration. Type of series: in vivo. How it is done: as §2
The subject of another series is rabbits. Put plainly: Tolerated oral administration. Type of series: in vivo. Here is the method: as §2
A further series deals with dogs. Put plainly: Tolerated oral administration. The series is classed as in vivo. How it is done: as §2
For series [2], the system named is mice. Put plainly: Acute toxicity by abdominal injection. Type of series: in vivo. Here is the method:
as §1
Acute toxicity was examined by administering the compounds to the mice by
as §2

Series [3] concerns enzyme decomposing R--Val--Val--X--Ala--X to Val--X--Ala--X. Description: Substrate specificity of the purified enzyme. To be noted: in words. The series is classed as biochemical, Bacillus sphaericus ATCC 14577. How it is done: A medium having the same composition as in Experiment 1 was prepared and 50 ml of the medium was poured into a 500 ml flask. After sterilization at 120° C for 10 minutes, the medium was inoculated with Bacillus sphaericus ATCC 14577 and incubated on a reciprocal shaker (120 r.p.m.) at 30° C for 24 hours to obtain a seed culture. To a 20l jar fermentor was added to 10l of the medium having the same composition, sterilized at 120° C for 15 minutes and inoculated with the seed culture. The cultivation was performed at 30° C with agitation (300 r.p.m.) and aeration (5l/minute).
After 15 hours growth, isovalery-L-valvy-L-valyl-4-amino-3-hydroxy-6-methylheptanoyl-L-alanyl-4-amino-3-hydroxy-6-methylheptanoic acid was added to the culture in a concentration of 50 meg/ml and the cultivation was continued for another 33 hours. Cells were harvested by centrifugation with a Spharpless centrifuge, suspended in 2l of cold 0.01M phosphate buffer, pH 7.0, and disrupted by sonication 20 Kc for 2 minutes. These and the following procedures were carried out under 4° C. A supernatant from the sonicate was heated at 60° C for 10 minutes at pH 7.0. The resulting precipitate was removed by centrifugation and 3.8 g of streptomycin sulfate was added to 1.7l of the supernatant. Precipitated nucleic acid was removed by centrifugation. […]

Series [4] shares this test system. Put plainly: Effect of various inhibitors and metal ions on enzyme activity. The series is classed as biochemical, Bacillus sphaericus ATCC 14577.
The target in the next series is T1, pepsin (Sus scrofa, UniProt P00791).
T1 construct: purchased SIGMA 2XCRY (grade as printed; no catalogue number)
T1 sequence (P00791 60-385): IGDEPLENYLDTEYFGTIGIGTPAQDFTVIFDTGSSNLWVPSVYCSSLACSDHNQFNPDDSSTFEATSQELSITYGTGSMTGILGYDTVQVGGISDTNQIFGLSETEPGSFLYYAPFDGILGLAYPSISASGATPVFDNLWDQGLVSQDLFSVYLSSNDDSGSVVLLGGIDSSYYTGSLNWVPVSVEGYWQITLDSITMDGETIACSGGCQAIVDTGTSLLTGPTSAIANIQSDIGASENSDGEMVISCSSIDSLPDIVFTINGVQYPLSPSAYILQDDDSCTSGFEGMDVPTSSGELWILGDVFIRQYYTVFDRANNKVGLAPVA
Put plainly: Assay of pepsin-inhibitory activity (casein digestion). Type of series: biochemical. Here is the method:
Assay of pepsin-inhibitory activity in this invention was performed according to the following method: A mixture of 1 ml of 0.6%, by weight, highly purified case in dissolved in 0.08 M lactate buffer solution, pH 2.2, 0.7 ml of 0.02M KCl--HCl buffer solution, pH 2.0, and 0.2 ml of solution containing the compound sample was incubated at 37° C for 3 minutes. To this mixture 4 meg of pepsin (SIGMA, 2XCRY) dissolved in 0.1 ml of 0.2M KCl--HCl buffer solution were added. The mixture was incubated at 37° C for 30 minutes. The reaction was stopped by the addition of 2.0 ml of 1.7M perchloric acid. After 1 hour at room temperature, the optical density (a) of the supernatant liquid was read at 280 mμ. An inhibition rate was obtained according to:
where (b) is the optical density at 280 mμ of the tube without the sample solution.
The ID50 is defined as the amount necessary for 50% of the inhibition rate.

Another series concerns Stomach ulcers in rats. Put plainly: Stress stomach ulcers in rats (method of Takagi et al.). The series is classed as in vivo. The settings on record: 50 - 200 mg/kg immediately after the stress and once daily for 4 days. How it is done: Stomach ulcers in rats made by the method described by Takagi et al. in the Japanese Journal of Pharmacology, 18, 9-19, 1958, that is, placing male rats in a cage at 23° C. for 22 hours, are protected or therapeutically treated by the compounds. […] When the dose was 10 mg/kg, the inhibition percentage of the ulcers was 50 - 60%.

The mark [5] stands for this setting: Concentration 2 mM, control 100.
Setting [6] is: Concentration 10 mM, control 100.

Chain of Cathepsin D (P07339 65-412, species assumed): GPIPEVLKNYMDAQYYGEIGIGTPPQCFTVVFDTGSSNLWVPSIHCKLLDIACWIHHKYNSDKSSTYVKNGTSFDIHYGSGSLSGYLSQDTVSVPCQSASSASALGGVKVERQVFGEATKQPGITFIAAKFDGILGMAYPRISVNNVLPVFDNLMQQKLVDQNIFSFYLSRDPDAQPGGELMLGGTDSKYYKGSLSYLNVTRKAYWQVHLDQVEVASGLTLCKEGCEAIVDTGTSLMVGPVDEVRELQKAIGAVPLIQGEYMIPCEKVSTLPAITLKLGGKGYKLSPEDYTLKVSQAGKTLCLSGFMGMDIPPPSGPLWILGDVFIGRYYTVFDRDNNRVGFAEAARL

Take `CC(C)C[C@H](NC(=O)[C@H](C)NC(=O)C[C@H](O)[C@H](CC(C)C)NC(=O)[C@@H](N)C(C)C)[C@@H](O)CC(=O)O` [Val--X--Ala--X, L-valyl-4-amino-3-hydroxy-6-methylheptanoyl-L-alanyl-4-amino-3-hydroxy-6-methylheptanoic acid]: the IC50 against Cathepsin D is 12.9 µM. In addition, the solubility result in the series “Solubility in solvents” (ether, ethyl acetate, and butyl acetate) is “insoluble”; in “Solubility in solvents” (methanol, ethanol, pyridine, and acetic acid), “soluble”; in “Solubility in solvents” (n-proponal, n-butanol, n-amyl alcohol and acetone), “slightly soluble”. For the same molecule, the tolerated oral administration result in the series on mice [1], in the series on rats, in the series with rabbits and with dogs was “more than 2.000 mg/kg” each time. The “Acute toxicity(mg/kg) LD0” value in the series with mice [2] is reported as no less than 5000 mg/kg.
On Cathepsin D, `CC(C)C[C@H](NC(=O)[C@H](C)NC(=O)C[C@H](O)[C@H](CC(C)C)NC(=O)[C@@H](NC(=O)C(C)C)C(C)C)[C@@H](O)CC(=O)O` [Isobutyryl--Val--X--Ala--X, N--isobutyryl--Val--X--Ala--X] gave an IC50 of 0.489 µM. That is a sub-micromolar value.
For the molecule `CC(C)CC(=O)N[C@H](C(=O)O)C(C)C` [IVA--Val], in [3], the “susceptibility to the enzyme (hydrolysis)” value was “not split”.
`O=C(O)CI` [Monoiodoacetic Acid]: in series [4], the Relative activity worked out at 84.
For the molecule `O=C1CCC(=O)N1Br` [N-Bromosuccinimide], in series [4] (2mM), the “Inhibition of the enzyme” value is “Inhibition”. Also, in series [4] (setting [5]), the Relative activity is listed as 0.
In series [4] (setting [5]), `O=C(O)CN(CCN(CC(=O)O)CC(=O)O)CC(=O)O` [Ethylenediaminetetraacetic Acid] yielded a Relative activity of 30.
As to `CC(=O)N[C@H](C(=O)NC(CC(C)C)C(O)CC(=O)N[C@@H](C)C(=O)NC(CC(C)C)C(O)CC(=O)O)C(C)C` (stereo partly drawn) [Acetyl--Val--X--Ala--X, N--acetyl--Val--X--Ala--X], the figures for the IC50 at pepsin and against Cathepsin D were 0.0569 µM and 0.771 µM, respectively. Besides, the “Acute toxicity(mg/kg) LD0” value in the series on mice [2] was no less than 4000 mg/kg.
On Cathepsin D, `CC(C)CC(=O)N[C@H](C(=O)N[C@@H](CC(C)C)[C@@H](O)CC(=O)N[C@@H](C)C(=O)N[C@@H](CC(C)C)[C@@H](O)CC(=O)O)C(C)C` [Isovaleryl--Val--X--Ala--X, N--isovaleryl--Val--X--Ala--] showed an IC50 of 0.0767 µM. The “Acute toxicity(mg/kg) LD0” value in the series on mice [2] is no less than 3000 mg/kg.
Take `CC(C)CC(=O)N[C@H](C(=O)N[C@H](C(=O)N[C@@H](CC(C)C)[C@@H](O)CC(=O)N[C@@H](C)C(=O)N[C@@H](CC(C)C)[C@@H](O)CC(=O)O)C(C)C)C(C)C` [pepstatin]: the cure of ulcers result in the series on Stomach ulcers in rats is “rapid cure of ulcers”.
For `CC(=O)[O-].CC(=O)[O-].[Pb+2]` [Lead Acetate], the Relative activity in [4] came out at 43.
As to `[Cl-].[Cl-].[Zn+2]` [Zinc Chloride], the Relative activity in series [4] (setting [5]) came to 66; in series [4] (setting [6]), 44.
Take `CCCCCCCCCCCCCCCC(=O)N[C@H](C(=O)N[C@@H](CC(C)C)[C@@H](O)CC(=O)N[C@@H](C)C(=O)N[C@@H](CC(C)C)[C@@H](O)CC(=O)O)C(C)C` [Palmitoyl--Val--X--Ala--X, N--palmitoyl--Val--X--Ala--X]: on Cathepsin D, half-maximal inhibition (IC50) was put at 1.48 µM.
`CC(C)C[C@H](NC(=O)[C@H](C)NC(=O)C[C@H](O)[C@H](CC(C)C)NC(=O)[C@@H](NC(=O)c1ccccc1)C(C)C)[C@@H](O)CC(=O)O` [Benzoyl--Val--X--Ala--X, N--benzoyl--Val--X--Ala--X]: the results for the IC50 against pepsin and against Cathepsin D were 0.0511 µM and 0.0824 µM, respectively. Also, in the series on mice [2], the “Acute toxicity(mg/kg) LD50” value came out at 1350 mg/kg.
In the case of `CC(=O)[O-].CC(=O)[O-].[Hg+2]` [Mercuric Acetate], the Relative activity in series [4] worked out at 0.
Consider `c1cnc2c(c1)ccc1cccnc12` [o-Phenanthroline], for which the “Inhibition of the enzyme” value in series [4] (2mM) was “Inhibition”. In series [4] (setting [5]), the Relative activity was 0.
With `[Cl][Co][Cl]` [Cobalt Chloride], the increase in activity in series [4] (2mM) was 34%; in series [4] (10 mM), 66%.
For the molecule `O[C@H](CS)[C@H](O)CS` (racemic) [Dithiothreitol], the “Inhibition of the enzyme” value in [4] (2mM) is reported as “Inhibition”. For the same molecule, in [4] (setting [5]), the Relative activity worked out at 0.
For `OCCS` [β-Mercaptoethanol] the same measures were “Inhibition” and 0.
For `O=C(O)c1cc[c]([Hg][Cl])cc1` [p-Chloromercuribenzoate], in series [4], the “Inhibition of the enzyme” value is on record as “Inhibition”. The same molecule came in with a Relative activity in series [4] (setting [5]) of 2.
Turning to `CC(C)C[C@H](NC(=O)[C@H](C)NC(=O)C[C@H](O)[C@H](CC(C)C)NC(=O)[C@@H](NC(=O)C(C)Oc1ccccc1)C(C)C)[C@@H](O)CC(=O)O` (stereo partly drawn) [Phenoxypropionyl--Val--X--Ala--X, N--2--phenoxypropionyl--Val--X--Ala--X], the IC50 on Cathepsin D was 0.0154 µM. The “Acute toxicity(mg/kg) LD50” value in the series with mice [2] came out at 2100 mg/kg.
Molecule `[Ca+2].[Cl-].[Cl-]` [Calcium Choride] registered an increase in activity in series [4] (10 mM) of 29%. Besides, the Relative activity worked out at 110 in series [4] (setting [5]) and 129 in series [4] (setting [6]).
For the molecule `[N-]=[N+]=[N-].[Na+]` [NaN3], the Relative activity in series [4] was determined as 100.
`CC(C)CC(NC(=O)[C@H](C)NC(=O)CC(O)C(CC(C)C)NC(=O)[C@@H](NC(=O)COc1ccccc1)C(C)C)C(O)CC(=O)O` (stereo partly drawn) [Phenoxyacetyl--Val--X--Ala--X, n--phenoxyacetyl--Val--X--Ala--X] had a half-inhibitory concentration (IC50) against Cathepsin D of 0.0126 µM. In addition, in the series with mice [2], the “Acute toxicity(mg/kg) LD50” value worked out at 1500 mg/kg.
For `[Cl][Hg][Cl]` [HgCl2], the “Inhibition of the enzyme” value in series [4] (2mM) is on record as “Inhibition”.

For orientation: IC50 means the concentration at which inhibition is half-maximal. A lower IC50 goes with greater potency.
